We go through 21 molecules from patent publication US8129417B2, “Substituted octahydrocyclopenta[C]pyrrol-4-amines as calcium channel blockers” (Abbott Laboratories, priority 2008, dated 2012).

For orientation: IC50 means the concentration at which inhibition is half-maximal.

Chain of human Cav2.2 (Q00975 whole entry): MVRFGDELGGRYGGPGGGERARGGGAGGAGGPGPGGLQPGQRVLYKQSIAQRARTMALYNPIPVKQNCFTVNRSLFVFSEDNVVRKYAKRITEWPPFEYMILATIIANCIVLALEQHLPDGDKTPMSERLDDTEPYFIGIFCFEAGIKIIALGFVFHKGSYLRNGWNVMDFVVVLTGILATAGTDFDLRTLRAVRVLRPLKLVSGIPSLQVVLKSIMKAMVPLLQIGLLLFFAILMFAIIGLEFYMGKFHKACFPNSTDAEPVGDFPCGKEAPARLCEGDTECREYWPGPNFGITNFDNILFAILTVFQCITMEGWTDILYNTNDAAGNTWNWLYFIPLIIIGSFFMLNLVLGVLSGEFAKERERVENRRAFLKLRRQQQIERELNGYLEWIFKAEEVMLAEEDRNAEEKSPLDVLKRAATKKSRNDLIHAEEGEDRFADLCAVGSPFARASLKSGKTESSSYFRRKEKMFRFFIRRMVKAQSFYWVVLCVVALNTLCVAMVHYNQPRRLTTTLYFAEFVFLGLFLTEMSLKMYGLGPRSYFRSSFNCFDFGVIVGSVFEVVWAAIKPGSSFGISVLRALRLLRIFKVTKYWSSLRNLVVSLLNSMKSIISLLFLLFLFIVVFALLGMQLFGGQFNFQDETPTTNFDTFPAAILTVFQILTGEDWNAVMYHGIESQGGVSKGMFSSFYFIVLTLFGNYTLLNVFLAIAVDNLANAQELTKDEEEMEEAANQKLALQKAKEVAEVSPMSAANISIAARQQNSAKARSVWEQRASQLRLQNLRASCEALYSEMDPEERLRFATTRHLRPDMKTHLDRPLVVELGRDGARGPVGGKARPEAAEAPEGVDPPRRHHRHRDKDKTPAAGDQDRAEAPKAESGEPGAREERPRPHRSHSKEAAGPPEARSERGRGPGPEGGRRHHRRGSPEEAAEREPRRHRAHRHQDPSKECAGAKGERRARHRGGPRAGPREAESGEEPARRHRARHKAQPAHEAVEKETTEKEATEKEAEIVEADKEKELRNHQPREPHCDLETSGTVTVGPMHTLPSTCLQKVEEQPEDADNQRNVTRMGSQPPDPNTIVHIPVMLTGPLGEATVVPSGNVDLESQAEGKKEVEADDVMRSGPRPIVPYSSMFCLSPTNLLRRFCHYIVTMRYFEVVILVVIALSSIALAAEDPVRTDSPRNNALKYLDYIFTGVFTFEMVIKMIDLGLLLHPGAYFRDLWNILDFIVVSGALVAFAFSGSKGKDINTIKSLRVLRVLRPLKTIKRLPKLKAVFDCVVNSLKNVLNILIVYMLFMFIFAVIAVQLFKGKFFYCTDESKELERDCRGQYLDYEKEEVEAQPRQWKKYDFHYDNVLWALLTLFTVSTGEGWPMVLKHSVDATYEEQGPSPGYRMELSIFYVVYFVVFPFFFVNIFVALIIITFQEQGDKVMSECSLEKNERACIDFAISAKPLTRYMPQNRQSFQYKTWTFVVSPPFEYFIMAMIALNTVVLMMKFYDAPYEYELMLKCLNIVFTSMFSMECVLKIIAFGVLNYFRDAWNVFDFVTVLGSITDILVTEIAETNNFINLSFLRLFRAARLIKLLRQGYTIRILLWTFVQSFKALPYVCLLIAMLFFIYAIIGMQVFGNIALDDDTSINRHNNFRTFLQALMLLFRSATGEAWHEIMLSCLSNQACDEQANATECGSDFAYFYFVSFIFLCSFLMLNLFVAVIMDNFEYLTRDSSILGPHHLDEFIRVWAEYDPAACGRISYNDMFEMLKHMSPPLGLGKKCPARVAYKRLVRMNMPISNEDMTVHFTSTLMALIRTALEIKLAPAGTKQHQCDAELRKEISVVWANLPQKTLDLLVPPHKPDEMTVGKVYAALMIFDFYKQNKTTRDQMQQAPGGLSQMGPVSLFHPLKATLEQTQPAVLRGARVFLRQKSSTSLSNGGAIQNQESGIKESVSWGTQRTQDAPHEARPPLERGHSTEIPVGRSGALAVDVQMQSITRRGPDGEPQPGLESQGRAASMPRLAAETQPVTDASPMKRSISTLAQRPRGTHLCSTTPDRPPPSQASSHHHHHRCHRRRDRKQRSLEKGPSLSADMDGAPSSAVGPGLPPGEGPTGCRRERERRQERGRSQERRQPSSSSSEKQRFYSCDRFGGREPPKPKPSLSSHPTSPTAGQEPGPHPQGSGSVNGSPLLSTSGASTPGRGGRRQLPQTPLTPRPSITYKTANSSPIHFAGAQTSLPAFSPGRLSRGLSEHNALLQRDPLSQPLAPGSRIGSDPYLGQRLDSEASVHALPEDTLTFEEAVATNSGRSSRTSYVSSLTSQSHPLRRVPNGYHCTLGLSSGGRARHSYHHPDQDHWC
Chain of human Cav2.2 (P54289 25-946 partner limits assumed): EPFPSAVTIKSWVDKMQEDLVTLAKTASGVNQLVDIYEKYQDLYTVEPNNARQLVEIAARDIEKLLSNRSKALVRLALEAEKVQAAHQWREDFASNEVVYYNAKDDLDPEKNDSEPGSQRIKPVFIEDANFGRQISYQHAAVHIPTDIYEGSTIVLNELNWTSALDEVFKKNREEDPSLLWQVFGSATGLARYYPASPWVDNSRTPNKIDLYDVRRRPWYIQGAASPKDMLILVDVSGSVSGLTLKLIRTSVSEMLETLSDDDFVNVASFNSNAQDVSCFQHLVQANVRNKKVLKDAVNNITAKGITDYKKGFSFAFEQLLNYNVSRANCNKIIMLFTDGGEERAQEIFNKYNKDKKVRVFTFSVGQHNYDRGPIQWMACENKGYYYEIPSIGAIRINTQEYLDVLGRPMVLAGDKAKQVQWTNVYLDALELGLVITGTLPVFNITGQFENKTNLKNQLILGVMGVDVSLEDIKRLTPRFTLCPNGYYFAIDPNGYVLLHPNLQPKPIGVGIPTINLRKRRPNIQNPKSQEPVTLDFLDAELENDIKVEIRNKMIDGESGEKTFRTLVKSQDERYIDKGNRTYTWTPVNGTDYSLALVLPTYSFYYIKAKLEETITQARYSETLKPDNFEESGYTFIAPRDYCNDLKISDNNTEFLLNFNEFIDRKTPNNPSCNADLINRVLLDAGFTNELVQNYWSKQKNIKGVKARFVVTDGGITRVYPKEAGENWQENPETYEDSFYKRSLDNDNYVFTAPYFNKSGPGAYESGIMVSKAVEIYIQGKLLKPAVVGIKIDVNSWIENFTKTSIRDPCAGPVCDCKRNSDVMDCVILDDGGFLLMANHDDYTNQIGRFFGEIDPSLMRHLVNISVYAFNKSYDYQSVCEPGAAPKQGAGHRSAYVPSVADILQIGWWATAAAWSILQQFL
Chain of human Cav2.2 (P54289 947-1103 partner limits assumed): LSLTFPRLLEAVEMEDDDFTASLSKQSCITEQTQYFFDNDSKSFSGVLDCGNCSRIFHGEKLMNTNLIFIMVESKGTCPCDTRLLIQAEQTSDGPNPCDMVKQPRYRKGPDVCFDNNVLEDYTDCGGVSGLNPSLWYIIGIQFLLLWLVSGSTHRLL
Chain of human Cav2.2 (P54284 whole entry partner): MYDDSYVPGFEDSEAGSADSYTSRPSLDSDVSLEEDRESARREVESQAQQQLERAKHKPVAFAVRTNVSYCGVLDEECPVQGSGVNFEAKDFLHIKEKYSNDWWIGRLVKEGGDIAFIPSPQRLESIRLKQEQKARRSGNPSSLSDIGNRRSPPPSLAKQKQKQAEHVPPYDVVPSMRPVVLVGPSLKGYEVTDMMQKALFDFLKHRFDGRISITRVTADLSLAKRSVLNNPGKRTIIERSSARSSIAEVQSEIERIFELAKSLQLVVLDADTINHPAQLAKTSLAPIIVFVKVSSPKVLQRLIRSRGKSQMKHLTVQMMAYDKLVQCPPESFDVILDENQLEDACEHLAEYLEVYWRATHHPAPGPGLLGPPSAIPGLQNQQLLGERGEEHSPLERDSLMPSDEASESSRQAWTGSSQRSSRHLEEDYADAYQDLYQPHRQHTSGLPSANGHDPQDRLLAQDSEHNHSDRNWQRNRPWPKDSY

The assay concerns the target human Cav2.2 (Homo sapiens, UniProt Q00975). Kind of assay: Assessment of calcium channel activity using FLIPR (Ca2+ influx in IMR32 cells). It counts as cell-based. To be noted: 60 minute pre-incubation with compound, 2 μM nifedipine, depolarized with 80 mM KCl. The method, boiled down:
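IMR32 neuroblastoma cells seeded at 1-1.2×10^5 cells/well and grown 48 h at 37 °C before FLIPR Ca2+ influx read. Percent inhibition at each concentration vs no-inhibitor activity; IC50 by non-linear sigmoidal dose-response fit.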
`CCN[C@@H](CC(C)C)C(=O)N[C@H]1CC[C@@H]2CN(Cc3cccc(C(F)(F)F)c3)C[C@@H]21` [Example 366, N^2-ethyl-N^1-{(3aR,4S,6aS)-2-[3-(trifluoromethyl)benzyl]octahydrocyclopenta[c]pyrrol-4-yl}-L-leucinamide]: the IC50 was 5.28 µM.

In the case of `CN[C@H](C(=O)N[C@@H]1CC[C@H]2CN(Cc3ccc(C(F)(F)F)cc3)C[C@H]21)C(C)C` [Example 367, N^2-methyl-N^1-{(3aS,4R,6aR)-2-[4-(trifluoromethyl)benzyl]octahydrocyclopenta[c]pyrrol-4-yl}-L-valinamide], the IC50 turned out to be 7 µM.

For `O=C(N[C@@H]1CC[C@H]2CN(Cc3ccc(C(F)(F)F)cc3)C[C@H]21)[C@@H]1CCCCN1` [Example 370, (2S)—N-{(3aS,4R,6aR)-2-[4-(trifluoromethyl)benzyl]octahydrocyclopenta[c]pyrrol-4-yl}piperidine-2-carboxamide], the concentration for half-maximal inhibition (IC50) was 6.02 µM.

Take `CN[C@H](C(=O)N[C@@H]1CC[C@H]2CN(Cc3cccc(C(F)(F)F)c3)C[C@H]21)C(C)C` [Example 373, N^2-methyl-N^1-{(3aS,4R,6aR)-2-[3-(trifluoromethyl)benzyl]octahydrocyclopenta[c]pyrrol-4-yl}-L-valinamide]: the IC50 was found to be 7.58 µM.

Regarding `CN[C@@H](CC(C)C)C(=O)N[C@@H]1CC[C@H]2CN(Cc3ccc(C(F)(F)F)c(F)c3)C[C@H]21` [Example 374, N^1-{(3aS,4R,6aR)-2-[3-fluoro-4-(trifluoromethyl)benzyl]octahydrocyclopenta[c]pyrrol-4-yl}-N^2-methyl-L-leucinamide], the IC50 is 5.36 µM.

With `CN[C@@H](CC(C)C)C(=O)N[C@@H]1CC[C@H]2CN(Cc3ccc(F)c(C(F)(F)F)c3)C[C@H]21` [Example 375, N^1-{(3aS,4R,6aR)-2-[4-fluoro-3-(trifluoromethyl)benzyl]octahydrocyclopenta[c]pyrrol-4-yl}-N^2-methyl-L-leucinamide], the IC50 came out at 8.22 µM.

`CCN[C@@H](CC(C)C)C(=O)N[C@H]1CC[C@@H]2CN(S(=O)(=O)c3cccc(C(F)(F)F)c3)C[C@@H]21` [Example 383, N^2-ethyl-N^1-((3aR,4S,6aS)-2-{[3-(trifluoromethyl)phenyl]sulfonyl}octahydrocyclopenta[c]pyrrol-4-yl)-L-leucinamide]: the IC50 turned out to be 0.8 µM.

Regarding `CN[C@@H](CC(C)C)C(=O)N[C@H]1CC[C@@H]2CN(S(=O)(=O)c3cccc(C(F)(F)F)c3)C[C@@H]21` [Example 384, N^2-methyl-N^1-((3aR,4S,6aS)-2-{[3-(trifluoromethyl)phenyl]sulfonyl}octahydrocyclopenta[c]pyrrol-4-yl)-L-leucinamide], the half-inhibitory concentration (IC50) worked out at 1.14 µM.

Take `N[C@@H](Cc1ccccc1)C(=O)N[C@H]1CC[C@@H]2CN(S(=O)(=O)c3cccc(C(F)(F)F)c3)C[C@@H]21` [Example 385, N-((3aR,4S,6aS)-2-{[3-(trifluoromethyl)phenyl]sulfonyl}octahydrocyclopenta[c]pyrrol-4-yl)-L-phenylalaninamide]: the IC50 stood at 1.85 µM.

With `CC(C)[C@H](N)CC(=O)N[C@H]1CC[C@@H]2CN(S(=O)(=O)c3cccc(C(F)(F)F)c3)C[C@@H]21` [Example 388, (3R)-3-amino-4-methyl-N-((3aR,4S,6aS)-2-{[3-(trifluoromethyl)phenyl]sulfonyl}octahydrocyclopenta[c]pyrrol-4-yl)pentanamide], the IC50 is 4.53 µM.

Turning to `O=C(N[C@H]1CC[C@@H]2CN(S(=O)(=O)c3cccc(C(F)(F)F)c3)C[C@@H]21)[C@@H]1CCCCN1` [Example 390, (2S)—N-((3aR,4S,6aS)-2-{[3-(trifluoromethyl)phenyl]sulfonyl}octahydrocyclopenta[c]pyrrol-4-yl)piperidine-2-carboxamide], the IC50 was determined as 2.46 µM.

Take `CCCC[C@H](NC)C(=O)N[C@H]1CC[C@@H]2CN(S(=O)(=O)c3cccc(C(F)(F)F)c3)C[C@@H]21` [Example 393, N^2-methyl-N^1-((3aR,4S,6aS)-2-{[3-(trifluoromethyl)phenyl]sulfonyl}octahydrocyclopenta[c]pyrrol-4-yl)-L-norleucinamide]: the IC50 worked out at 1.08 µM.

For the molecule `CCC[C@H](NC)C(=O)N[C@H]1CC[C@@H]2CN(S(=O)(=O)c3cccc(C(F)(F)F)c3)C[C@@H]21` [Example 394, N^2-methyl-N^1-((3aR,4S,6aS)-2-{[3-(trifluoromethyl)phenyl]sulfonyl}octahydrocyclopenta[c]pyrrol-4-yl)-L-norvalinamide], the IC50 was 0.98 µM.

For the molecule `CN[C@@H](CC(C)C)C(=O)N[C@H]1CC[C@@H]2CN(S(=O)(=O)c3ccc(C(F)(F)F)cc3)C[C@@H]21` [Example 395, N^2-methyl-N^1-((3aR,4S,6aS)-2-{[4-(trifluoromethyl)phenyl]sulfonyl}octahydrocyclopenta[c]pyrrol-4-yl)-L-leucinamide], the 50% inhibitory concentration (IC50) amounted to 2.12 µM.

Turning to `O=C(N[C@@H]1CC[C@H]2CN(S(=O)(=O)c3cccc(C(F)(F)F)c3)C[C@H]21)[C@@H]1CCCN1` [Example 396, N-((3aS,4R,6aR)-2-{[3-(trifluoromethyl)phenyl]sulfonyl}octahydrocyclopenta[c]pyrrol-4-yl)-L-prolinamide], the IC50 amounted to 3.55 µM.

Take `O=C(N[C@@H]1CC[C@H]2CN(S(=O)(=O)c3cccc(C(F)(F)F)c3)C[C@H]21)[C@@H]1CCCCN1` [Example 398, (2S)—N-((3aS,4R,6aR)-2-{[3-(trifluoromethyl)phenyl]sulfonyl}octahydrocyclopenta[c]pyrrol-4-yl)piperidine-2-carboxamide]: the IC50 amounted to 3.25 µM.

Regarding `CN[C@H](C(=O)N[C@@H]1CC[C@H]2CN(S(=O)(=O)c3ccc(F)cc3)C[C@H]21)C(C)C` [Example 400, N^1-{(3aS,4R,6aR)-2-[(4-fluorophenyl)sulfonyl]octahydrocyclopenta[c]pyrrol-4-yl}-N^2-methyl-L-valinamide], the IC50 amounted to 6.86 µM.

With `CN[C@H](C(=O)N[C@@H]1CC[C@H]2CN(S(=O)(=O)c3ccc(C(F)(F)F)cc3)C[C@H]21)C(C)C` [Example 402, N^2-methyl-N^1-((3aS,4R,6aR)-2-{[4-(trifluoromethyl)phenyl]sulfonyl}octahydrocyclopenta[c]pyrrol-4-yl)-L-valinamide], the IC50 amounted to 2.06 µM.

Take `CCC[C@H](NC)C(=O)N[C@@H]1CC[C@H]2CN(S(=O)(=O)c3ccc(C(F)(F)F)cc3)C[C@H]21` [Example 404, N^2-methyl-N^1-((3aS,4R,6aR)-2-{[4-(trifluoromethyl)phenyl]sulfonyl}octahydrocyclopenta[c]pyrrol-4-yl)-L-norvalinamide]: the IC50 is 1.02 µM.

In the case of `CN[C@H](C(=O)N[C@@H]1CC[C@H]2CN(S(=O)(=O)c3cccc(C(F)(F)F)c3)C[C@H]21)C(C)C` [Example 406, N^2-methyl-N^1-((3aS,4R,6aR)-2-{[3-(trifluoromethyl)phenyl]sulfonyl}octahydrocyclopenta[c]pyrrol-4-yl)-L-valinamide], the IC50 amounted to 3.69 µM.

With `CN[C@@H](CC(C)C)C(=O)N[C@@H]1CC[C@H]2CN(S(=O)(=O)c3ccc(F)c(C(F)(F)F)c3)C[C@H]21` [Example 407, N^1-((3aS,4R,6aR)-2-{[4-fluoro-3-(trifluoromethyl)phenyl]sulfonyl}octahydrocyclopenta[c]pyrrol-4-yl)-N^2-methyl-L-leucinamide], the IC50 was found to be 5.43 µM.
